Data as given in ChEMBL document CHEMBL1201862, “PubChem BioAssay data set” (2004).
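These data come from cells grown in 96-well plates and exposed to compound for 48 hours at five concentrations. GI50 marks 50% less growth.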 The source made the active and inactive calls. Cut-off read from the data, not from the text of the source: active = GI50 up to about 1.1 µM and inactive = higher.

Tests used:
Assay in all cases: NCI tumour cell line growth inhibition, 48 h
NCI-H23 = system: NCI-H23
SR = system: SR
NCI-H522 = system: NCI-H522
PC-3 = system: PC-3
TK-10 = system: TK-10
MOLT-4 = system: MOLT-4
HCT-15 = system: HCT-15
CCRF-CEM = system: CCRF-CEM
IGROV-1 = system: IGROV-1
SK-MEL-2 = system: SK-MEL-2
UO-31 = system: UO-31
SNB-75 = system: SNB-75
A549 = system: A549
OVCAR-8 = system: OVCAR-8
MDA-MB-435 = system: MDA-MB-435
SK-MEL-5 = system: SK-MEL-5
SF-539 = system: SF-539
HCC 2998 = system: HCC 2998
SN12C = system: SN12C
T47D = system: T47D
KM12 = system: KM12
RPMI-8226 = system: RPMI-8226
MCF7 = system: MCF7
CAKI-1 = system: CAKI-1
OVCAR-4 = system: OVCAR-4
SF-268 = system: SF-268
MDA-N = system: MDA-N
SK-MEL-28 = system: SK-MEL-28
COLO 205 = system: COLO 205
NCI-H226 = system: NCI-H226
HCT-116 = system: HCT-116
HT-29 = system: HT-29
OVCAR-3 = system: OVCAR-3
HOP-62 = system: HOP-62
RXF 393 = system: RXF 393
HOP-92 = system: HOP-92
786-0 = system: 786-0
SNB-19 = system: SNB-19
SF-295 = system: SF-295
UACC-62 = system: UACC-62
SK-OV-3 = system: SK-OV-3
NCI-H460 = system: NCI-H460
OVCAR-5 = system: OVCAR-5
LOX IMVI = system: LOX IMVI
BT-549 = system: BT-549
ACHN = system: ACHN
HL-60 = system: HL-60
UACC-257 = system: UACC-257
SW-620 = system: SW-620
U-251 = system: U-251
Malme-3M = system: Malme-3M
K562 = system: K562
DU-145 = system: DU-145
Hs-578T = system: Hs-578T
M14 = system: M14
EKVX = system: EKVX
A498 = system: A498
MDA-MB-231 = system: MDA-MB-231
NCI/ADR-RES = system: NCI/ADR-RES

Brc1ccc2c([C@H]3CN[C@@H](c4c[nH]c5cc(Br)ccc45)CN3)c[nH]c2c1
GI50 (NCI-H23): 2.54 µM (inactive) | GI50 (SR): 2.27 µM (inactive) | GI50 (NCI-H522): 1.57 µM (inactive) | GI50 (PC-3): 3.9 µM (inactive) | GI50 (TK-10): 7.33 µM (inactive) | GI50 (MOLT-4): 2.29 µM (inactive) | GI50 (HCT-15): 3.83 µM | GI50 (CCRF-CEM): 2.84 µM (inactive) | GI50 (IGROV-1): 3.19 µM (inactive) | GI50 (SK-MEL-2): 5.07 µM (inactive) | GI50 (UO-31): 4.16 µM (inactive) | GI50 (SNB-75): 5.27 µM (inactive) | GI50 (A549): 2.8 µM (inactive) | GI50 (OVCAR-8): 1.84 µM (inactive) | GI50 (MDA-MB-435): 1.72 µM (inactive) | GI50 (SK-MEL-5): 4.91 µM (inactive) | GI50 (SF-539): 2.89 µM (inactive) | GI50 (HCC 2998): 1.62 µM (inactive) | GI50 (SN12C): 5.19 µM (inactive) | GI50 (T47D): 5.47 µM (inactive) | GI50 (KM12): 1.7 µM (inactive) | GI50 (RPMI-8226): 2.48 µM (inactive) | GI50 (MCF7): 1.9 µM (inactive) | GI50 (CAKI-1): 2.94 µM (inactive) | GI50 (OVCAR-4): 1.9 µM (inactive) | GI50 (SF-268): 6.79 µM (inactive) | GI50 (MDA-N): 1.66 µM (inactive) | GI50 (SK-MEL-28): 14.2 µM (inactive) | GI50 (COLO 205): 1.57 µM (inactive) | GI50 (NCI-H226): 7.26 µM (inactive) | GI50 (HCT-116): 1.66 µM (inactive) | GI50 (HT-29): 1.92 µM (inactive) | GI50 (OVCAR-3): 1.94 µM (inactive) | GI50 (HOP-62): 11.6 µM (inactive) | GI50 (RXF 393): 2.4 µM (inactive) | GI50 (HOP-92): 3.24 µM (inactive) | GI50 (786-0): 1.65 µM (inactive) | GI50 (SNB-19): 9.14 µM (inactive) | GI50 (SF-295): 7.1 µM (inactive) | GI50 (UACC-62): 9.82 µM (inactive) | GI50 (SK-OV-3): 8.99 µM (inactive) | GI50 (NCI-H460): 1.9 µM (inactive) | GI50 (OVCAR-5): 4.95 µM (inactive) | GI50 (LOX IMVI): 1.83 µM (inactive) | GI50 (BT-549): 12.3 µM (inactive) | GI50 (ACHN): 2.94 µM (inactive) | GI50 (HL-60): 1.95 µM (inactive) | GI50 (UACC-257): 14.9 µM (inactive) | GI50 (SW-620): 1.71 µM (inactive) | GI50 (U-251): 2 µM (inactive) | GI50 (Malme-3M): 2.56 µM (inactive) | GI50 (K562): 1.74 µM (inactive) | GI50 (DU-145): 2.96 µM (inactive) | GI50 (Hs-578T): 7.62 µM (inactive) | GI50 (M14): 2.24 µM (inactive) | GI50 (EKVX): 10.5 µM (inactive) | GI50 (A498): 1.87 µM (inactive) | GI50 (MDA-MB-231): 1.8 µM (inactive) | GI50 (NCI/ADR-RES): 4.9 µM (inactive)

CO[C@H]1C=CO[C@@]2(C)Oc3c(C)c(O)c4c(O)c(c(CN5CCN(C)CC5)c(O)c4c3C2=O)NC(=O)/C(C)=C\C=C[C@H](C)[C@H](O)C(C)[C@@H](O)C(C)[C@H](OC(C)=O)[C@@H]1C (stereo partly drawn)
GI50 (NCI-H23): 14.6 µM (inactive) | GI50 (SR): 6.62 µM (inactive) | GI50 (NCI-H522): 18.3 µM (inactive) | GI50 (PC-3): 17 µM (inactive) | GI50 (TK-10): 49.4 µM (inactive) | GI50 (MOLT-4): 5.87 µM (inactive) | GI50 (HCT-15): 30.8 µM | GI50 (CCRF-CEM): 4.39 µM (inactive) | GI50 (IGROV-1): 33.8 µM (inactive) | GI50 (SK-MEL-2): 41.8 µM (inactive) | GI50 (UO-31): 33.7 µM (inactive) | GI50 (SNB-75): 72.9 µM (inactive) | GI50 (A549): 39.7 µM (inactive) | GI50 (OVCAR-8): 20 µM (inactive) | GI50 (MDA-MB-435): 27.5 µM (inactive) | GI50 (SK-MEL-5): 24.3 µM (inactive) | GI50 (SF-539): 24.8 µM (inactive) | GI50 (HCC 2998): 44.4 µM (inactive) | GI50 (SN12C): 30.3 µM (inactive) | GI50 (T47D): 26.7 µM (inactive) | GI50 (KM12): 45.6 µM (inactive) | GI50 (RPMI-8226): 4.62 µM (inactive) | GI50 (MCF7): 11.1 µM (inactive) | GI50 (CAKI-1): > 77.1 µM (inactive) | GI50 (OVCAR-4): 27.5 µM (inactive) | GI50 (SF-268): 50.2 µM (inactive) | GI50 (MDA-N): 44.3 µM (inactive) | GI50 (SK-MEL-28): 90.4 µM (inactive) | GI50 (COLO 205): 5.7 µM (inactive) | GI50 (NCI-H226): > 63.5 µM (inactive) | GI50 (HCT-116): 13.4 µM (inactive) | GI50 (HT-29): 21.6 µM (inactive) | GI50 (OVCAR-3): 2.88 µM (inactive) | GI50 (HOP-62): 17.7 µM (inactive) | GI50 (RXF 393): 48.3 µM (inactive) | GI50 (HOP-92): 71.4 µM (inactive) | GI50 (786-0): 21.3 µM (inactive) | GI50 (SNB-19): > 100 µM (inactive) | GI50 (SF-295): > 100 µM (inactive) | GI50 (UACC-62): 34.6 µM (inactive) | GI50 (SK-OV-3): > 100 µM (inactive) | GI50 (NCI-H460): 39.6 µM (inactive) | GI50 (OVCAR-5): > 100 µM (inactive) | GI50 (LOX IMVI): 14.3 µM (inactive) | GI50 (BT-549): 45.9 µM (inactive) | GI50 (ACHN): > 75.3 µM (inactive) | GI50 (HL-60): 23.1 µM (inactive) | GI50 (UACC-257): 21 µM (inactive) | GI50 (SW-620): 13.1 µM (inactive) | GI50 (U-251): 32.7 µM (inactive) | GI50 (Malme-3M): 40.6 µM (inactive) | GI50 (K562): 20.9 µM (inactive) | GI50 (DU-145): 34.8 µM (inactive) | GI50 (Hs-578T): > 100 µM (inactive) | GI50 (M14): 24.2 µM (inactive) | GI50 (EKVX): 68.5 µM (inactive) | GI50 (A498): > 100 µM (inactive) | GI50 (MDA-MB-231): 34.4 µM (inactive) | GI50 (NCI/ADR-RES): > 100 µM (inactive)
